Patent publication US20240368133A1, “Compounds for the Treatment of Pain, in Particular, Neuropathic Pain, and/or Other Diseases or Disorders that are Associated with AT2R and/or AT2R Mediated Signaling” (Confo Therapeutics N.V., priority 2021, published 2024)
Counter-ions that a name gives are not always drawn.

The compounds below were run against human AT2R fused to Cb23 (Homo sapiens, UniProt P50052) (assay: Radioligand binding assay, displacement of 125I-[Sar1, Ile8]-Angiotensin II, hAT2R Cb23). Conditions: not given.
Chain of human AT2R fused to Cb23 (P50052 whole entry, looked up, the tested form may be a part): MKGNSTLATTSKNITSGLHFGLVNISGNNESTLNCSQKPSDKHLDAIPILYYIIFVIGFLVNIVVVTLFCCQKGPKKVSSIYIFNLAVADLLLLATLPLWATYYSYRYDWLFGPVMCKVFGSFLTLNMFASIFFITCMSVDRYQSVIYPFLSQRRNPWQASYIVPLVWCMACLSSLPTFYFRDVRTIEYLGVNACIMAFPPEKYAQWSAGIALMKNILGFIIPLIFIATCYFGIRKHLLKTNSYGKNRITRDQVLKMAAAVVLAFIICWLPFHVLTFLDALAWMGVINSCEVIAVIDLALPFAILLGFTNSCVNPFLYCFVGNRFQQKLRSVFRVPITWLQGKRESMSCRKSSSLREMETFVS
Description: (§1) All synthesized ligands were evaluated in a radioligand assay by displacing ^125I-[Sar1, Ile8]-Angiotensin II (Perkin Elmer, NEX248050UC) from human AT2R fused to Cb23 or human/rodent/cynomolgus/minipig/dog WT AT2R in HEK-293 cells membrane preparations, using C21 (Vicore Pharma) and Angiotensin II (endogenous ligand) as reference. The affinity was determined using an eight-point dose-response curve, each point performed in duplicates. The compounds were also evaluated in a counterscreen binding assay for displacement of ^125I-[Sar1, Ile8]-Angiotensin II binding to human AT1R in HEK-293 cell membranes. For AT1R, the percent displacement was determined at 1 μM and […] (in duplicates) or using an eight-point dose-response curve, each point performed in duplicates with Candesartan and Losartan used as reference.
(§2) For the AT2R/AT1R binding assays, cell membranes, expressing AT2R_Cb23, AT2R or AT1R, were incubated with 0.05 nM ^125I-[Sarl, Ile8]-Ang II. The ligand competition assay was performed in a total volume of 100 μL assay buffer (50 mM Tris, 5 mM MgCl2, 1 mM EDTA, 0.1% BSA, pH 7.4), at concentrations ranging from […] to 10 μM. For each experiment, each ligand concentration was tested in duplicate. Non-specific binding (NSB) was determined by the inclusion of 10 μM unlabeled [Sarl]-Ang II (Sigma Aldrich). The reaction was initiated by the addition of radioligand, after which the plates were incubated at 25° C. for one hour. The reaction was terminated by rapid filtration using a vacuum harvester, applying six washes with 100 μL of ice-cold wash buffer (50 mM Tris.HCl, pH 7.4). The filter plates GF/C (Perkin Elmer) were pre-soaked in 0.5% PEI. The residual amount of radioactivity was determined via liquid scintillation counting. IC50 values, representing the concentration at which each ligand displaced 50% of ^125I-[Sarl, Ile8]-Ang II, were calculated using GraphPad Prism 7.02 by applying a Non-linear regression equation (variable slope, four parameters) on the data. The obtained values serve as affinity estimates for each ligand and their ability to compete against the radioligand for binding with AT2R or AT1R, respectively.

Question: For `c1ccc2sc(CN3CCN(c4cc(NC5CC5)ccc4-c4nn[nH]n4)CC3)nc2c1` [Compound A-61, 3-[4-(1,3-benzothi-azol-2-ylmethyl)-piperazin-1-yl]-N-cyclopropyl-4-(2H-tetrazol-5-yl)aniline hydrochloride], which IC50 is on record?
Answer: Its IC50 is 14.7 µM.

Same assay, conditions: displacement of 125I-[Sar1, Ile8]-Angiotensin II, human AT2R fused to Cb23, HEK-293 cell membrane preparations; read-out: Binding affinity on hAT2R_Cb23 IC50

Question: For `O=C(O)c1ccccc1CN1CCN(c2nc3ccccc3s2)CC1` [Compound A-01, 2-[[4-(1,3-benzothiazol-2-yl)piperazin-1-yl]methyl]benzoic acid], which IC50 is on record?
Answer: Its IC50 is 33.6 µM.

Question: Which IC50 does the source give for `CCS(=O)(=O)NC(=O)c1ccccc1N1CCN(Cc2nc3ccccc3s2)CC1` [Compound A-04, 2-[4-(1,3-benzothiazol-2-ylmethyl)piperazin-1-yl]-N-ethylsulfonyl-benzamide] here?
Answer: The IC50 was 22.8 µM.

Question: Which IC50 does the source give for `O=[N+]([O-])c1ccc2nc(N3CCN(Cc4ccccc4-c4nn[nH]n4)CC3)sc2c1` [Compound A-07, 6-nitro-2-[4-[[2-(2H-tetrazol-5-yl)-phenyl]methyl]-piperazin-1-yl]-1,3-benzothiazole] here?
Answer: Its IC50 is 28.8 µM.

Question: With `Cn1c(CN2CCN(c3ccccc3-c3nn[nH]n3)CC2)nc2ccccc21` [Compound A-15] as the compound, how does the IC50 read?
Answer: The IC50 was 42.9 µM.

Question: For `Cc1ccc(-c2nn[nH]n2)c(N2CCN(Cc3nc4ccccc4n3C)CC2)c1` [Compound A-16, 1-methyl-2-[[4-[5-methyl-2-(2H-tetrazol-5-yl)phen-yl]piperazin-1-yl]-methyl]benzimid-azole], which IC50 is on record?
Answer: Its IC50 is 21.7 µM.

Question: For `O=c1[nH]c(CN2CCN(c3ccccc3-c3nn[nH]n3)CC2)nc2ccccc12` [Compound A-26, 2-[[4-[2-(2H-tetrazol-5-yl)phen-yl]piperazin-1-yl]-methyl]-3H-quin-azolin-4-one], which IC50 is on record?
Answer: Its IC50 is 111 µM.

Question: How did the IC50 turn out when `Cc1ccc(-c2nn[nH]n2)c(N2CCN(Cc3nc4ccccc4c(=O)[nH]3)CC2)c1` [Compound A-27, 2-[[4-[5-methyl-2-(2H-tetrazol-5-yl)-phenyl]piperazin-1-yl]methyl]-3H-quinazolin-4-one] was run?
Answer: Its IC50 is 35.9 µM.

Question: `O=c1[nH]c(CN2CCN(c3cc(C(F)(F)F)ccc3-c3nn[nH]n3)CC2)nc2ccccc12` [Compound A-29, 2-[[4-[2-(2H-tetrazol-5-yl)-5-(trifluoromethyl)-phenyl]piperazin-1-yl]methyl]-3H-quinazolin-4-one] was tested. Which IC50 did it give?
Answer: Its IC50 is 42.4 µM.

Question: Which IC50 does the source give for `CC(C)=Cc1ccc(-c2nn[nH]n2)c(N2CCN(Cc3nc4ccccc4c(=O)[nH]3)CC2)c1` [Compound A-30, 2-[[4-[5-(2-methyl-prop-1-enyl)-2-(2H-tetrazol-5-yl)-phenyl]piperazin-1-yl]methyl]-3H-quinazolin-4-one] here?
Answer: The IC50 was 114 µM.

Question: Which IC50 does the source give for `COCCOc1ccc(-c2nn[nH]n2)c(N2CCN(Cc3nc4ccccc4s3)CC2)c1` [Compound A-56, 2-[[4-[5-(2-meth-oxyethoxy)-2-(2H-tetrazol-5-yl)phen-yl]piperazin-1-yl]-methyl]-1,3-benzo-thiazole] here?
Answer: Its IC50 is 61.7 µM.

Question: With `c1ccc2sc(CN3CCN(c4cc(OCC5COC5)ccc4-c4nn[nH]n4)CC3)nc2c1` [Compound A-58, 2-[[4-[5-(oxetan-3-ylmethoxy)-2-(2H-tetrazol-5-yl)phen-yl]piperazin-1-yl]-methyl]-1,3-benzo-thiazole] as the compound, how does the IC50 read?
Answer: The IC50 was 17.2 µM.

Question: Which IC50 does the source give for `COCCNc1ccc(-c2nn[nH]n2)c(N2CCN(Cc3nc4ccccc4s3)CC2)c1` [Compound A-63, 3-[4-(1,3-benzothi-azol-2-ylmethyl)-piperazin-1-yl]-N-(2-methoxyethyl)-4-(2H-tetrazol-5-yl)aniline] here?
Answer: Its IC50 is 21.6 µM.

Question: Which IC50 does the source give for `CN1CCN(c2ccc(-c3nn[nH]n3)c(N3CCN(Cc4nc5ccccc5s4)CC3)c2)CC1` [Compound A-66, 2-[[4-[5-(4-methyl-piperazin-1-yl)-2-(2H-tetrazol-5-yl)-phenyl]piperazin-1-yl]methyl]-1,3-benzothiazole] here?
Answer: Its IC50 is 11.8 µM.

Question: Which IC50 does the source give for `CC(C)Cc1ccc(-c2nn[nH]n2)c(N2CCN(Cc3cc(=O)n4c(ccn4C)n3)CC2)c1` [Compound A-74, 5-[[4-[5-isobutyl-2-(2H-tetrazol-5-yl)-phenyl]piperazin-1-yl]methyl]-1-methyl-pyrazolo-[1,5-a]pyrimidin-7-one] here?
Answer: The IC50 was 11.7 µM.

Question: `c1cnnc(CN2CCN(c3cc(C4CC4)ccc3-c3nn[nH]n3)CC2)c1` [Compound A-91, 3-[[4-[5-cyclopropyl-2-(2H-tetrazol-5-yl)phenyl]piperazin-1-yl]methyl]pyridazine] was tested. Which IC50 did it give?
Answer: The IC50 was 23.7 µM.

Question: With `Cc1nnc(CN2CCN(c3cc(CC(C)C)ccc3-c3nn[nH]n3)CC2)o1` [Compound A-92] as the compound, how does the IC50 read?
Answer: The IC50 was 15.6 µM.

Question: How did the IC50 turn out when `Cc1nc(=O)cc(CN2CCN(c3cc(CC(C)C)ccc3-c3nn[nH]n3)CC2)[nH]1` [Compound A-95, 6-[[4-[5-isobutyl-2-(2H-tetrazol-5-yl)phenyl]piperazin-1-yl]methyl]-2-methyl-1H-pyrimidin-4-one] was run?
Answer: The IC50 was 43.3 µM.

Question: Which IC50 does the source give for `Cc1noc(CN2CCN(c3cc(CC(C)C)ccc3-c3nn[nH]n3)CC2)n1` [Compound A-96, 5-[[4-[5-isobutyl-2-(2H-tetrazol-5-yl)-phenyl]piperazin-1-yl]methyl]-3-methyl-1,2,4-oxa-diazole] here?
Answer: Its IC50 is 13.2 µM.

Question: For `Cc1nccc(CN2CCN(c3cc(CC(C)C)ccc3-c3nn[nH]n3)CC2)n1` [Compound A-99], which IC50 is on record?
Answer: Its IC50 is 33.9 µM.

Question: How did the IC50 turn out when `Cc1cc(=O)nc(CN2CCN(c3cc(CC(C)C)ccc3-c3nn[nH]n3)CC2)[nH]1` [Compound A-100, 2-[[4-[5-isobutyl-2-(2H-tetrazol-5-yl)phenyl]piperazin-1-yl]methyl]-6-methyl-1H-pyrimidin-4-one] was run?
Answer: The IC50 was 16.5 µM.

Question: With `Cc1ncc(CN2CCN(c3cc(CC(C)C)ccc3-c3nn[nH]n3)CC2)cn1` [Compound A-103, 5-[[4-[5-isobutyl-2-(2H-tetrazol-5-yl)-phenyl]piperazin-1-yl]methyl]-2-methyl-pyrimidine] as the compound, how does the IC50 read?
Answer: The IC50 was 12.2 µM.

Question: For `CC(C)Cc1ccc(-c2nn[nH]n2)c(N2CCN(Cc3cccc(C#N)n3)CC2)c1` [Compound A-107, 6-[[4-[5-isobutyl-2-(2H-tetrazol-5-yl)-phenyl]piperazin-1-yl]methyl]pyr-idine-2-carbonitrile], which IC50 is on record?
Answer: Its IC50 is 54.9 µM.

Question: `CC(C)Cc1ccc(-c2nn[nH]n2)c(N2CCN(Cc3ncon3)CC2)c1` [Compound A-108, 3-[[4-[5-isobutyl-2-(2H-tetrazol-5-yl)-phenyl]piperazin-1-yl]methyl]-1,2,4-oxadiazole] was tested. Which IC50 did it give?
Answer: Its IC50 is 41.7 µM.

Question: Which IC50 does the source give for `CC(C)Cc1ccc(-c2nn[nH]n2)c(N2CCN(Cc3cn(C)cn3)CC2)c1` [Compound A-109, 1-[5-isobutyl-2-(2H-tetrazol-5-yl)phen-yl]-4-[(1-methyl-imidazol-4-yl)meth-yl]piperazine] here?
Answer: The IC50 was 40.4 µM.

Question: Which IC50 does the source give for `CC(C)Cc1ccc(-c2nn[nH]n2)c(N2CCN(Cc3ccn(C)n3)CC2)c1` [Compound A-110, 1-[5-isobutyl-2-(2H-tetrazol-5-yl)phen-yl]-4-[(1-methyl-pyrazol-3-yl)meth-yl]piperazine] here?
Answer: The IC50 was 17.8 µM.

Question: How did the IC50 turn out when `Cc1ncc(CN2CCN(c3cc(CC(C)C)ccc3-c3nn[nH]n3)CC2)n1C` [Compound A-114, 1-[(2,3-dimethyl-imidazol-4-yl)meth-yl]-4-[5-isobutyl-2-(2H-tetrazol-5-yl)-phenyl]piperazine] was run?
Answer: Its IC50 is 18.7 µM.

Question: Which IC50 does the source give for `COc1cc(N2CCN(Cc3nc4ccccc4s3)CC2)c(-c2nn[nH]n2)cc1F` [Compound A-117, 2-[[4-[4-fluoro-5-methoxy-2-(2H-tetrazol-5-yl)phen-yl]piperazin-1-yl]-methyl]-1,3-benzo-thiazole] here?
Answer: The IC50 was 52.6 µM.

Question: With `Fc1cc(-c2nn[nH]n2)c(N2CCN(Cc3nc4ccccc4s3)CC2)cc1C1CC1` [Compound A-124, 2-[[4-[5-cycloprop-yl-4-fluoro-2-(2H-tetrazol-5-yl)phen-yl]piperazin-1-yl]-methyl]-1,3-benzo-thiazole] as the compound, how does the IC50 read?
Answer: The IC50 was 18.1 µM.

Question: How did the IC50 turn out when `Cc1cc(-c2nn[nH]n2)c(N2CCN(Cc3nc4ccccc4s3)CC2)cc1C1CC1` [Compound A-126, 2-[[4-[5-cycloprop-yl-4-methyl-2-(2H-tetrazol-5-yl)phen-yl]piperazin-1-yl]-methyl]-1,3-benzo-thiazole] was run?
Answer: Its IC50 is 22.6 µM.

Question: Which IC50 does the source give for `CCNc1cc(-c2nn[nH]n2)c(N2CCN(Cc3nc4ccccc4s3)CC2)cc1C1CC1` [Compound A-130, 4-[4-(1,3-benzothi-azol-2-ylmethyl)-piperazin-1-yl]-2-cyclopropyl-N-eth-yl-5-(2H-tetrazol-5-yl)aniline] here?
Answer: The IC50 was 28.8 µM.

The compounds below were run against human AT1R (Homo sapiens (Human), UniProt P30556) (assay: Counterscreen radioligand binding assay, displacement of 125I-[Sar1, Ile8]-Angiotensin II, hAT1R WT). Conditions: 125I-[Sar1, Ile8]-Ang II, compound at 1 μM, semi-quantitative score, read-out: % Displaced radioligand at 1 μM.
Chain of human AT1R (P30556 whole entry): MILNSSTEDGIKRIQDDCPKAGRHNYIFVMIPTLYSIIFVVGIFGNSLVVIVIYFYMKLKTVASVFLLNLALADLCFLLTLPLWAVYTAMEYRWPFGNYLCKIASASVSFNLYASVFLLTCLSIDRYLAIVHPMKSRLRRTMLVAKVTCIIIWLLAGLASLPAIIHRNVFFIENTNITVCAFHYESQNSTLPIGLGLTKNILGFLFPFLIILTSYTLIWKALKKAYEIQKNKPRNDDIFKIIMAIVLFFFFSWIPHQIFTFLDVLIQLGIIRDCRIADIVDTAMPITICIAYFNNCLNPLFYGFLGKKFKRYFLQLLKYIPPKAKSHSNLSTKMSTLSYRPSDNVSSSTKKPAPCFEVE
Description: as §1, §2

Question: With `c1ccc2sc(CN3CCN(c4cc(NCC5CC5)ccc4-c4nn[nH]n4)CC3)nc2c1` [Compound A-62, 3-[4-(1,3-benzothi-azol-2-ylmethyl)-piperazin-1-yl]-N-(cyclopropylmeth-yl)-4-(2H-tetrazol-5-yl)aniline] as the compound, how does the inhibition at 1 µM read?
Answer: Its inhibition at 1 µM is < 30%.

Same assay, conditions: 125I-[Sar1, Ile8]-Ang II, compound at 10 μM, semi-quantitative score, read-out: % Displaced radioligand at 10 μM

Question: `c1ccc2sc(CN3CCN(c4cc(NCC5CC5)ccc4-c4nn[nH]n4)CC3)nc2c1` [Compound A-62, 3-[4-(1,3-benzothi-azol-2-ylmethyl)-piperazin-1-yl]-N-(cyclopropylmeth-yl)-4-(2H-tetrazol-5-yl)aniline] was tested. Which inhibition at 10 µM did it give?
Answer: The inhibition at 10 µM was < 30%.
